Legend:
[1] = system: wound (skin punch, ID 12 mm); assay: Murine wound model, percentage closure of the wound; assay type: in vivo, ICR mice; conditions: topical 10 ug per mouse daily for 10 consecutive days; Day 5 to Day 11; vs negative control (PBS)
Excerpt: FIGS. 1 and 2 illustrate the effect of polypeptides IK34720 (SEQ ID NO: 3—RSKAKNPLYRRRRRRRRR) (FIG. 1) and the dextro-reverso sequence IK236770 (SEQ ID NO: 4—rrrrrrrrrylpnkaksr) (FIG. 2), on wound healing over 10 days in a murine wound model in accordance with the following protocol.
Three groups of 8 male ICR mice with a mean weight of 22 g (±2 g) were used in the present study. The animals were housed in individual cages during the study. Under isoflurane gas anaesthesia, the shoulder and back region of each animal was shaved and a sharp punch (ID 12 mm) was used to induce a wound by removing the skin, including panniculus carnosus and adherent tissues on Day 1.
Following induction of the wound the polypeptides IK34720 and IK236770 were topically administered to the site of the wound at a dosage of 10 μg per animal. […] An additional group which comprised the administration of Phosphate buffered Saline (PBS) at pH 7.4 was used as a negative control.
The wound healing was analysed on Days 5, 7, 9 and 11 by tracing the periphery of the wound onto clear plastic sheets with the wound area calculated by an Image analyzer ProPlus (Media Cybernetics, Version 4.5.0.29. The percentage closure of the wound (%) was calculated. Percentage closure of the wound was determined on 5, 7, 9 and 11. ANOVA and Dunnett's test were applied to test significant significance between the treated groups (peptide and positive control groups) and the negative control group at each time point of measurement. Differences were considered statistically significant at P<0.05, and are indicated by *.

[2] = system: TGFβRII; assay: TGFβRII expression in UV irradiated dermal fibroblasts (Western analysis); assay type: cell-based, human; conditions: 1, 2.5, 5 and 10 μM added immediately after UV; 5 h post UV; primary fibroblasts; FIG. 3B
Method: The influence of the polypeptide IK34720 (SEQ ID NO: 3) on TGFβRII phosphorylation was assessed using the following protocol.
Human skin dermal fibroblasts were cultured from keratome biopsies of healthy adult human skin. Cells were between passages three and six. For UV irradiation, subconfluent cells were washed once with phosphate-buffered saline (PBS) and irradiated with UV. Immediately following irradiation, negative control (vehicle) or 1 μM, 2.5 μM, 5 μM and 10 μM of IK34720 (“1K” in FIG. 3B, SEQ ID NO: 3) were added to the cell cultures.
For Western analysis, nuclear extracts were prepared, membrane fractions were prepared and resolved on 8% SDS-polyacrylamide gel electrophoresis, transferred to polyvinylidene difluoride membrane, and reacted with primary antibodies. Blots were visualized and quantified.

[3] = system: Cyclobutane pyrimidine dimers (CPDs) in primary keratinocytes; assay: CPD detection by IHC in keratinocytes after UV-irradiation in vitro; assay type: cell-based
Method: An in vitro assay was conducted allowing for densitometry analysis of CPD detection by IHC in keratinocytes 3 h following UV-irradiation in accordance with the following protocol.
Keratinocytes were harvested and cultured as described above at Example 2. Samples were split into two groups, being UV irradiated (UVR) and non-UV irradiated (SHAM). UV-irradiation was performed by solar simulated UV-irradiation for cells, also as described above at Example 2. Irradiation solution was PBS containing 5 mM D-glucose. […]
Harvested keratinocytes were plated on poly-D-lysine coated coverslips in 96 well plates and irradiated (or sham treated) as described above in at Example 2 in PBS containing 5 mM D-glucose. Keratinocytes were fixed 3 h after UV-irradiation. Immunohistochemistry and image analysis were performed as described previously (Gordon-Thomson et al., Photochem Photobiol Sci, 2012, 11(12):1837-47; Gupta et al., vide supra, Rybchyn MS et al., J Invest Dermatol, 2018;138(5):1146-1156). Thymine dimers were detected using the anti-thymine dimer antibody (Sigma-Aldrich, Mo., USA) at 10 μg/mL, and quantified as an index of CPD, as previously described (Douki T and Cadet J, Biochemistry,2001, 40(8):2495-501).

[4] = system: apoptotic keratinocytes; assay: Sunburn (apoptotic) cells in mouse skin after UV-irradiation; assay type: in vivo, Skh:hr1 hairless mice; conditions: topical 20, 100 or 200 ug in 100 uL immediately after UVR; FIG. 11
Method: UV-induced DNA damage in the form of elevated CPDs can induce mutations in epidermal cells leading to the development of cancer cells. Reduction of CPDs through application of DNA repair enzymes prevents the risk of UV-induced skin cancer and reduce the level of apoptotic cells following UV-induced damage. The number of apoptotic skin cells following UV-irradiation was assessed in accordance with the following protocol.
Female Skh:hr1 hairless mice were prepared, irradiated and biopsied according to the methods of Example 4. Prior to biopsy, and immediately after irradiation, mice were treated with either a base lotion vehicle (negative control), 11.4 pmol/cm2 of Calcitriol in vehicle (positive control) the polypeptide IK34720 (SEQ ID NO: 3) in water, at 20 ug, 100 ug or 200 ug in a total volume of 100 uL.
Biopsies were taken from UV-irradiated dorsal skin 3 hrs post-UVR and fixed in Histochoice fixative (Amresco, Solon OH) for 6 h. Skin samples were paraffin-embedded and 5 micrometre sections were cut for all analyses. Sections (24 h after UV) were subjected to routine hematoxylin and eosin staining for visualization of sunburn cells. The stained sections were examined under a Zeiss-Axioplan light microscope at 40× magnification, and the number of sunburn cells per linear millimetre of skin section recorded.

[5] = system: apoptotic cells in human skin explants; assay: Apoptotic sunburn cells in human skin explants after UV-irradiation; assay type: cell-based; conditions: 500 μM
Method: FIGS. 14 and 15 illustrate the effect of the polypeptide IK34720 (SEQ ID NO: 3) on the number of apoptotic cells in human skin explants.
Skin explants were cultured irradiated and treated as described above for CPD, and subsequent to treatment were stained and quantified as described for Example 6.

“RSKAKNPLYRRRRRRRRR [IK34720, 18-residue polypeptide: … with a C-terminal polyarginine region of 8 arginines]” was tested, and the wound closure percentage [1] was “statistically significant increase (P<0.05) in wound closure percentage”, the TGFβRII expression [2] was “restored TGFβRII expression in UV treated cells” and the “CPD levels vs keratinocytes treated with Calcitriol” value ([3]; 5 μM, 3 h after UV) was “comparable reduction in CPD levels”. For the same sequence, the “CPD levels vs vehicle-treated UV-irradiated keratinocytes” value ([3]; 5 μM, 3 h after UV) was “statistically significant (*p<0.05) reduction in CPD levels”, the “CPD formation (average intensity of CPD staining) vs positive control” value ([3]; 10 uM, FIG. 8B) was “more effective at inhibiting CPD formation than the positive control 1,25 D” and the CPD levels ([3]; 0.5, 1, 2.5 or 5 μM after ssUV, keratinocytes fixed 3 h after UV, FIGS. 7 and 8) was “decreases CPD levels in primary keratinocytes exposed to solar simulated UV-irradiation in a dose dependent manner”. The “number of apoptotic keratinocytes (sunburn cells)” value [4] was “reduced the number of apoptotic keratinocytes”, the “number of apoptotic cells” value ([5]; 3 hrs post UV-irradiation, FIG. 14) was “statistically significantly reduces the number of apoptotic cells” and the “number of apoptotic cells” value ([5]; 24 hrs post UV-irradiation, FIG. 15) was “statistically significantly reduces the number of apoptotic cells”.

From patent US20220409510A1, “Polypeptides And Methods For Improving Skin Conditions” (Interk Peptide Therapeutics Limited, priority 2018, published 2022)
